Patent US20240150691A1, “BILE DUCT CHIP AND USE THEREOF” (Kyoto University, priority 2021, published 2024)

Experiments:
MRP2 = molecular target: T1, MRP2 (Homo sapiens, UniProt Q92887); experiment: CDFDA transport assay; type: cell-based; conditions: 10 μM CDFDA in upper layer flow path, 3 hours, co-culturing with HuCCT1 cells versus PHH only
T1 construct: endogenous in cells; host or cells: primary human hepatocytes (PHH), alone or co-cultured with HuCCT1 cells, in the microfluidic device
Protocol: 10 μM of 5(6)-carboxy-2′,7′-dichlorofluorescein diacetate (CDFDA) was added to the upper layer flow path. After 3 hours, the culture supernatant from the lower layer flow path was recovered. The fluorescence intensity of 5(6)-carboxy-2′,7′-dichlorofluorescein (CDF) in the recovered culture supernatant, which is a metabolite of CDFDA, was measured.
Subsequently, 5(6)-carboxy-2′,7′-dichlorofluorescein diacetate (CDFDA) was added to the upper layer flow path of the intrahepatic bile duct chip, and after 3 hours, the fluorescence of the culture medium in the lower layer flow path was measured. In living cells, CDFDA is hydrolyzed to 5(6)-carboxy-2′,7′-dichlorofluorescein (CDF). CDF is a substrate of MRP2, which is a transporter. Therefore, the CDF transported to the lower layer flow path can be quantified by measuring the fluorescence intensity.
FIG. 13 is a graph showing results of measuring the fluorescence intensity.

[1] = Drug absorption in microfluidic device without PHH (LC-MS/MS); type: physicochemical; conditions: for concentration during the observation period: 1 to 4 hours, microfluidic device; for Drug absorption rate: Microfluidic device/Polystyrene plate; for Drug absorption rate / concentration as % of initial concentration: without PHH; for absorption in the microfluidic device: PDMS device without PHH; for concentration as % of initial concentration: 1 hour after the injection into the microfluidic device
Protocol: A culture medium containing MDZ, DIC, PHE, BUF, or MPHT was added to a microfluidic device or a polystyrene plate. Subsequently, 1, 2, and 4 hours after the addition of the drugs, the amounts of these drugs were quantified with LC-MS/MS.
A culture medium containing APAP (a CYP1A2 metabolite), 1OH-MDZ (a CYP3A4 metabolite), 4OH-DIC (a CYP2C9 metabolite), 4OH-MPHT (a CYP2C19 metabolite), or 1OH-BUF (a CYP2D6 metabolite) was added to a microfluidic device or a polystyrene plate. Subsequently, 1, 2, and 4 hours after the addition of the drugs, the amounts of these drugs were quantified with LC-MS/MS.
Subsequently, it was examined whether the absorption of the drugs and metabolites could be predicted by the relative physicochemical characteristics between the microfluidic device and the polystyrene plate. The drug absorption rate between the microfluidic device and the polystyrene plate was calculated. Subsequently, a correlation coefficient R^2 value between the drug absorption rate and the physicochemical characteristics (DiffCoef, M Log P, S+Log P, S+log D, MWt, and tPSA) of the drugs was calculated.

CYP3A4 = experiment: Measurement of CYP activity using CYP substrates in PHH (MDZ to 1OH-MDZ); type: in vitro ADME, human
Protocol: The LC-MS/MS analysis was carried out to measure the activity of CYP. Prior to a CYP substrate treatment, PHH was cultured in DMEM containing 10 mM HEPES for 30 minutes. Subsequently, the PHH was cultured in a culture medium containing 5 μM MDZ (the metabolite thereof is 1OH-MDZ), 50 μM MPHT (the metabolite thereof is 4OH-MPHT), 5 μM DIC (the metabolite thereof is 4OH-DIC), 10 μM BUF (the metabolite thereof is 1OH-BUF), or 50 μM PHE (the metabolite thereof is APAP). The supernatant was recovered 1, 2, and 4 hours after the treatment with the substrate. At the time of recovering the supernatant, an equal amount of a culture medium containing the substrate was added.
The recovered supernatant was mixed with acetonitrile (FUJIFILM Wako Pure Chemical Corporation) containing an equal volume of 5 μM propranolol (internal standard). The specimen was filtered through a Cosmonice Filter W (Nacalai Tesque, Inc.) having a pore size of 0.45 μm, the supernatant was subsequently analyzed by LC-MS/MS, and the concentration of the metabolite was measured based on the standard curve. The LC-MS/MS analysis was carried out using LCMS-8040 (Shimadzu Corporation).
Subsequently, the drug metabolic activities of the PHH cultured in the PDMS device and the PS plate were compared. First, PHH was treated with each of MDZ, DIC, PHE, BUF, and MPHT, which are substrates of CYP3A4, CYP2C9, CYP1A2, CYP2D6, and CYP2C19. Subsequently, after 1, 2, and 4 hours, the amounts of the metabolites (OH-MDZ, 4OH-DIC, APAP, 1OH-BUF, and 4OH-MPHT) generated in the culture medium were measured by LC-MS/MS.

CYP3A = type: in vitro ADME, human
Protocol: The supernatant was recovered 1, 2, and 4 hours after the treatment with the substrate. At the time of recovering the supernatant, an equal volume of a culture medium containing the substrate was added.
A fraction (20 μL) of the recovered supernatant was mixed with 20 μL of Milli-Q water and 120 μL of acetonitrile containing […] 10 nM of an internal standard (fluvastatin, FUJIFILM Wako Pure Chemical Corporation). After centrifugation, 100 μL of the supernatant was analyzed by LC-MS/MS.
Chromatography was carried out using a Nexera X2 LC system (Shimadzu Corporation), and quantification was carried out using QTRAP 5500+ (AB Sciex LLC).
A mass spectrometer was set to an MRM mode and operated with an electrospray ionization source.

[2] = test system: PHH and the HuCCT1 cells of the intrahepatic bile duct chip; experiment: Response to bile acid signaling in intrahepatic bile duct chip (quantitative RT-PCR); type: cell-based, human; conditions: 100 μM CDCA, 72 hours, versus DMSO
Protocol: In addition, the response to bile acid signaling in PHH was examined. Chenodeoxycholic acid (CDCA) is one of the major bile acids. […] In addition, a specimen treated with dimethyl sulfoxide (DMSO) instead of CDCA was also prepared for comparison. Subsequently, the gene expression levels of BSEP, NTCP, and CYP7A1 were measured according to quantitative RT-PCR. […] In FIG. 9, the vertical axis indicates a relative value of the expression level of each gene in a case where the expression level in a case where DMSO has been treated is set to 1. […] All data are indicated as average value±standard deviation (n=3).

FXR = experiment: Change in bile acid signaling upon drug exposure in PHH (quantitative RT-PCR); conditions: 100 μM CDCA and 2.5 μM GW4046, 72 hours, PHH in microfluidic device or polystyrene plate
Protocol: Subsequently, a change in bile acid signaling upon drug exposure was examined.
Subsequently, the gene expression levels of BSEP and CYP7A1 were measured by quantitative RT-PCR.

CYP1A2 = experiment: CYP induction test (quantitative RT-PCR) in PHH; type: cell-based, human; conditions: 50 μM omeprazole, 48 hours, versus DMSO
Protocol: PHH was treated with 50 μM omeprazole, 500 μM phenobarbital, or 20 μM rifampicin (all of which are from FUJIFILM Wako Pure Chemical Corporation) for 48 hours. Each of these drugs is known to induce CYP1A2, 2B6, and 3A4. In order to measure the inducibility of CYP1A2, 2B6, and 3A4, the expression level of CYP was measured by quantitative RT-PCR. The expression level of the target gene was standardized with the expression level of GAPDH. The inducibility was calculated as a change in expression level in terms of folds in cells treated with DMSO.
PHH was seeded in each of a microfluidic device and a polystyrene plate and cultured for 24 hours. Subsequently, the cultured PHH was treated with 50 μM omeprazole, 500 μM phenobarbital, or […] rifampicin for 48 hours. […] Subsequently, the expression level of each CYP gene was measured by quantitative RT-PCR. Cells treated with DMSO (final concentration: 0.1%) were used as a control.

[3] = test system: GFP-expressing HuCCT1 cells; experiment: Formation of tubular bile duct-like structure in microfluidic device; type: cell-based, human; conditions: 10 ng/mL in culture medium, 4 days, lower layer flow path
Protocol: GFP-expressing HuCCT1 cells were seeded in the lower layer flow path of the microfluidic device in the presence or absence of 10 ng/mL of DLL1 or DLL4, and after 4 days, a cross-sectional image of the microfluidic device was acquired.

PHH = experiment: Fibrosis marker gene expression in PHH treated with TGF-β1 (quantitative RT-PCR); type: cell-based, human
Protocol: (§1) Subsequently, the cellular response of the PHH cultured in the microfluidic device and the polystyrene plate to a recombinant protein was examined. Specifically, PHH was treated with transforming growth factor-β1 (TGF-β1), which is one of the causative factors of hepatic fibrosis. The PHH was exposed to 100 ng/mL TGF-β1 for 48 hours. Subsequently, the amount of TGF-β1 in the cell culture supernatant was measured according to ELISA.
Subsequently, the gene expression levels of ACTA2, COL1A1, and TIMP1, which are fibrosis markers, were measured by quantitative RT-PCR.
In FIG. 36, the vertical axis indicates a relative value in a case where the gene expression level in the cells (control) treated with phosphate buffered saline (PBS) is set to 1. […] The data is indicated as average value±standard deviation (n=3).
Subsequently, the gene expression level of TGF-β type II receptor (TGFBR2) was measured. […] Subsequently, the gene expression level of TGFBR2 was measured by quantitative RT-PCR.

[4] = Measurement of active TGF-β1 in culture supernatant (ELISA), adsorption to culture vessel; conditions: 100 ng/mL TGF-β1, 48 hours
Protocol: PHH was treated with 100 ng/mL of TGF-β1 for 48 hours. In order to quantify active TGF-β1 in the supernatant, the culture medium was recovered and analyzed according to the instruction manual using a TGF beta-1 Human ELISA Kit (BMS249-4, Thermo Fisher Scientific, Inc.). The amount of active TGF-β1 was calculated based on each standard.
as §1
FIG. 35 is a graph showing the results of ELISA. In FIG. 35, “top” indicates the results for the upper layer flow path, and “bottom” indicates the results for the lower layer flow path.

[5] = microfluidic device versus polystyrene plate
[6] = 100 ng/mL TGF-β1, 48 hours, microfluidic device or polystyrene plate, versus PBS

T1 sequence (Q92887 whole entry): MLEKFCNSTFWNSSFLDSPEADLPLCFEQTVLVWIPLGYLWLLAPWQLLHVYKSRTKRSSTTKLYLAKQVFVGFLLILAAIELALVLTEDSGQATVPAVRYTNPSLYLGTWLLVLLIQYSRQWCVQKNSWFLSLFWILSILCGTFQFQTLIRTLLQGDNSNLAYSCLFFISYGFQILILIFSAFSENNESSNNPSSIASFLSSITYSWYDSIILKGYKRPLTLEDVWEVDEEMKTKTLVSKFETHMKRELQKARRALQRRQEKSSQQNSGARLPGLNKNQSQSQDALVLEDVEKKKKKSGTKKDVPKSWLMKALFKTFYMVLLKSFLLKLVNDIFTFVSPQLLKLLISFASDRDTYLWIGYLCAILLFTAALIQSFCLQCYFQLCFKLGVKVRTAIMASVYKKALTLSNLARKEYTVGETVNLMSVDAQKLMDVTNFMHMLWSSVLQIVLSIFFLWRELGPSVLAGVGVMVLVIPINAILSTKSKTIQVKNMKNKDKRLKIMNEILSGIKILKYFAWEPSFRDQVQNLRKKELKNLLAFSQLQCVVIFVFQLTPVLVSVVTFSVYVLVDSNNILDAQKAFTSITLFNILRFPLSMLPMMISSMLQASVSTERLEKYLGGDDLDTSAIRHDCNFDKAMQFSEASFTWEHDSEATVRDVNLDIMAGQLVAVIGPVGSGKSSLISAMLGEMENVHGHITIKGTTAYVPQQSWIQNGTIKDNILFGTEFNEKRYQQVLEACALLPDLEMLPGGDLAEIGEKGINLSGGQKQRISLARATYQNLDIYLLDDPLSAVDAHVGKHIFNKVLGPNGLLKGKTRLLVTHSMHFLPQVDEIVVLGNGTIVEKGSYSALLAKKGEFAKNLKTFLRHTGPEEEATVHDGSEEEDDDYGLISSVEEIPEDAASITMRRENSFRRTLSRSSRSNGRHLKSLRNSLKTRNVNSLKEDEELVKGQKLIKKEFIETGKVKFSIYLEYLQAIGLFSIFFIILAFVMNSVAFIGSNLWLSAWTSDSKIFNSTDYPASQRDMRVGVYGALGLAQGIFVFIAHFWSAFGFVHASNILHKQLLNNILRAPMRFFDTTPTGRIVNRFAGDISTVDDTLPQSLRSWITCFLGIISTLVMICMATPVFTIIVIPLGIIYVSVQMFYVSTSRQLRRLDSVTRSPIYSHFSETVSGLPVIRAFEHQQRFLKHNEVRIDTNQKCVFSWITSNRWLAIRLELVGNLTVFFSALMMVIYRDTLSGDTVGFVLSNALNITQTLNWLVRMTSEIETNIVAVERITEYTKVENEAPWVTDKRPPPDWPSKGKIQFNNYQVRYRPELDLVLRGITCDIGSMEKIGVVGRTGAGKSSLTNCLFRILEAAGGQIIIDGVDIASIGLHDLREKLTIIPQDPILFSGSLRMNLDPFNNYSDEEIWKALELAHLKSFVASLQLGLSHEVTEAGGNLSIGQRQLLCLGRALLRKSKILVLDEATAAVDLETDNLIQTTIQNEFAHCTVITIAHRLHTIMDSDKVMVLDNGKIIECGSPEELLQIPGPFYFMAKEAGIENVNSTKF

5(6)-carboxy-2′,7′-dichlorofluorescein [CDF]
amount of the CDF transported to the lower layer flow path (MRP2): increases

OCc1ncc2n1-c1ccc(Cl)cc1C(c1ccccc1F)=NC2 [1-hydroxymidazolam]
concentration during the observation period [1]: constant
Drug absorption rate [1]: 1.714
absorption in the microfluidic device [1]: also absorbed in the PDMS device
formation rate of metabolite, microfluidic device versus polystyrene plate (CYP3A4; PHH, 5 μM MDZ): similar

CC(C)c1c(C(=O)Nc2ccccc2O)c(-c2ccccc2)c(-c2ccc(F)cc2)n1CCC(O)CC(O)CC(=O)O (stereo not shown) [2OH-ATV, 2-hydroxyatorvastatin]
formation of 2OH-ATV (CYP3A; PHH, 1 μM ATV, 1, 2 and 4 hours): observed in a time-dependent manner
formation rate of 2OH-ATV in PHH cultured in the microfluidic device (CYP3A; [5]): partially reduced

CCc1cccc2cc(C(O)CNC(C)(C)C)oc12 (stereo not shown) [Bufuralol, bufuralol]
concentration during the observation period [1]: constant
concentration as % of initial concentration [1]: 30%
Drug absorption rate [1]: 3.327
absorption in the microfluidic device [1]: absorbed in the microfluidic device

C[C@H](CCC(=O)O)[C@H]1CC[C@H]2[C@@H]3[C@H](O)C[C@@H]4C[C@H](O)CC[C@]4(C)[C@H]3CC[C@]12C [CDCA, chenodeoxycholic acid]
BSEP gene expression level [2]: increased
CYP7A1 gene expression level [2]: decreased
NTCP gene expression level [2]: increased
CYP7A1 gene expression level (FXR): decreased only in the microfluidic device

O=C(O)Cc1ccccc1Nc1c(Cl)cccc1Cl [Diclofenac, diclofenac]
Drug absorption rate [1]: 1.043

CC(C)c1onc(-c2c(Cl)cccc2Cl)c1COc1ccc(/C=C/c2cccc(C(=O)O)c2)c(Cl)c1 [GW4046]
BSEP gene expression level (FXR): increased in both the PHH cultured in the microfluidic device and the PHH cultured on the polystyrene plate

Cc1ncc2n1-c1ccc(Cl)cc1C(c1ccccc1F)=NC2 [Midazolam, midazolam]
concentration during the observation period [1]: constant
concentration as % of initial concentration [1]: 9.5%
Drug absorption rate [1]: 10.41
absorption in the microfluidic device [1]: absorbed in the microfluidic device
amount of the metabolite, microfluidic device versus polystyrene plate (CYP3A4; PHH, 5 μM MDZ): smaller
clearance (rate of drug metabolite formation divided by concentration of the drug in the culture medium) (CYP3A4; [5]): no difference

CCOc1ccc(NC(C)=O)cc1 [Phenacetin, phenacetin]
Drug absorption rate [1]: 0.9569

CC[C@@]1(c2ccccc2)NC(=O)N(C)C1=O [S-mephenytoin]
Drug absorption rate [1]: 0.9897

CCCC(C(=O)OCCN(CC)CC)(c1ccccc1)c1ccccc1 [SKF-525A]
formation of 2OH-ATV on treatment with pan-CYP inhibitor (CYP3A; PHH, 100 μM SKF-525A, 1 μM ATV): significantly reduced

COc1ccc2[nH]c([S+]([O-])Cc3ncc(C)c(OC)c3C)nc2c1 (stereo not shown) [omeprazole]
CYP1A2 expression level (CYP1A2): induced in both the microfluidic device and the polystyrene plate

DLL4: recombinant human Delta Like Canonical Notch Ligand 4, lumenization factor
formation of the tubular bile duct-like structure [3]: accelerates the formation of the tubular bile duct-like structure

TGF-β1: recombinant protein, one of the causative factors of hepatic fibrosis
ACTA2 gene expression level (PHH; [6]): increased
COL1A1 gene expression level (PHH; [6]): increased
TIMP1 gene expression level (PHH; [6]): increased
TGFBR2 gene expression level (PHH; TGF-β1 treatment, PHH in microfluidic device and polystyrene plate): not changed
adsorption of TGF-β1 to the microfluidic device [4]: has not allowed the adsorption
adsorption of TGF-β1 to the polystyrene plate [4]: allowed the adsorption
